Reference: US9937151B2, “Carbapenem antibacterials with gram-negative activity” (priority 2010, dated 2018)
≈ marks a conversion by molar mass, not a printed value.

System: G(−) bacterial strains
Test: Dilution antimicrobial susceptibility tests (MIC, NCCLS agar dilution / broth dilution)
Format: cell-based, Gram-negative organisms
Settings: unit assumed
Procedure, shortened: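 Agar dilution on Mueller-Hinton agar at 10^4 CFU/spot and broth dilution at 5×10^5 CFU/well, per NCCLS M7-A5. Streptococci tested on Mueller-Hinton agar with 5% sheep blood. MIC taken as minimum inhibitory concentration; ATCC control strains run alongside.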

[1] = strain #1 Acinetobacter calcoaceticus
[2] = strain #2 Acinetobacter baumannii, Cf-R, Ci-R
[3] = strain #3 Acinetobacter baumannii, Cf-R, Ci-R, Mp-I
[4] = strain #4 Acinetobacter baumannii, Cf-R, Imp-I, CBPase
[5] = strain #7 Enterobacter aerogenes
[6] = strain #8 Enterobacter cloacae, Cf-R, B+
[7] = strain #9 Enterobacter cloacae, Cf-R
[8] = strain #10 Escherichia coli, Ci-R
[9] = strain #11 Escherichia coli, Ci-R, AmpC
[10] = strain #15 Klebsiella pneumoniae
[11] = strain #16 Moraxella catarrhalis
[12] = strain #21 Providencia rettgeri
[13] = strain #22 Salmonella typhimurium
[14] = strain #25 Shigella dysenteriae
[15] = strain #28 Stenotrophomonas maltophilia
[16] = strain #29 Pseudomonas aeruginosa
[17] = strain #30 Pseudomonas aeruginosa
[18] = strain #31 Pseudomonas aeruginosa, Ofx-R
[19] = strain #32 Pseudomonas aeruginosa, Cf-R
[20] = strain #33 Pseudomonas aeruginosa, Ci-R
[21] = strain #34 Pseudomonas aeruginosa, Gen-R
[22] = strain #35 Pseudomonas aeruginosa, Ip-R
[23] = strain #36 Pseudomonas aeruginosa, Cf-R, Ci-R, Mp-R

SMILES	MIC [1] [µg/mL]	MIC [2] [µg/mL]	MIC [3] [µg/mL]	MIC [4] [µg/mL]	MIC (strain #5 Citrobacter diversus) [µg/mL]	MIC (strain #6 Citrobacter freundii) [µg/mL]	MIC [5] [µg/mL]	MIC [6] [µg/mL]	MIC [7] [µg/mL]	MIC [8] [µg/mL]	MIC [9] [µg/mL]	MIC (strain #12 Escherichia coli) [µg/mL]	MIC (strain #13 Escherichia coli) [µg/mL]	MIC (strain #14 Klebsiella oxytoca) [µg/mL]	MIC [10] [µg/mL]	MIC [11] [µg/mL]	MIC (strain #17 Morganella Morganii) [µg/mL]	MIC (strain #18 Morganella Morganii) [µg/mL]	MIC (strain #19 Proteus vulgaris) [µg/mL]	MIC (strain #20 Proteus mirabilis) [µg/mL]	other results
C[C@@H](O)C1C(=O)N2C(C(=O)O)=C(CN3CC[C@H](C(=O)NS(C)(=O)=O)C3)[C@H](C)C12 (stereo partly drawn) [Compound 132]	4 (≈ 9.63 µM)	16 (≈ 38.5 µM)	16 (≈ 38.5 µM)	32 (≈ 77 µM)	0.25 (≈ 0.602 µM)	0.25 (≈ 0.602 µM)	1 (≈ 2.41 µM)	0.25 (≈ 0.602 µM)	0.5 (≈ 1.2 µM)	0.25 (≈ 0.602 µM)	0.25 (≈ 0.602 µM)	0.25 (≈ 0.602 µM)	0.25 (≈ 0.602 µM)	0.5 (≈ 1.2 µM)	0.5 (≈ 1.2 µM)	0.016 (≈ 0.0385 µM)	4 (≈ 9.63 µM)	4 (≈ 9.63 µM)	1 (≈ 2.41 µM)	0.25 (≈ 0.602 µM)	MIC [12]: 1 µg/mL (≈ 2.41 µM); MIC [13]: 0.25 µg/mL (≈ 0.602 µM); MIC (strain #23 Serratia marcescens): 0.5 µg/mL (≈ 1.2 µM); MIC (strain #24 Serratia marcescens): 1 µg/mL (≈ 2.41 µM); MIC [14]: 0.25 µg/mL (≈ 0.602 µM); MIC (strain #26 Shigella sonnei): 0.25 µg/mL (≈ 0.602 µM); MIC (strain #27 Shigella flexneri): 0.13 µg/mL (≈ 0.313 µM); MIC [15]: 2 µg/mL (≈ 4.81 µM)
C[C@@H](O)C1C(=O)N2C(C(=O)O)=C(CN3CCC(NC(=O)CNC(=N)N)C3)[C@H](C)C12 (stereo partly drawn) [Compound 167]	32 (≈ 78.3 µM)	> 32	> 32	> 32	1 (≈ 2.45 µM)	2 (≈ 4.9 µM)	4 (≈ 9.79 µM)	2 (≈ 4.9 µM)	2 (≈ 4.9 µM)	1 (≈ 2.45 µM)	1 (≈ 2.45 µM)	1 (≈ 2.45 µM)	1 (≈ 2.45 µM)	2 (≈ 4.9 µM)	2 (≈ 4.9 µM)	2 (≈ 4.9 µM)	8 (≈ 19.6 µM)	8 (≈ 19.6 µM)	4 (≈ 9.79 µM)	2 (≈ 4.9 µM)	MIC [12]: 2 µg/mL (≈ 4.9 µM); MIC [13]: 2 µg/mL (≈ 4.9 µM); MIC (strain #23 Serratia marcescens): 2 µg/mL (≈ 4.9 µM); MIC (strain #24 Serratia marcescens): 4 µg/mL (≈ 9.79 µM); MIC [14]: 1 µg/mL (≈ 2.45 µM); MIC (strain #26 Shigella sonnei): 1 µg/mL (≈ 2.45 µM); MIC (strain #27 Shigella flexneri): 1 µg/mL (≈ 2.45 µM); MIC [15]: 16 µg/mL (≈ 39.2 µM)
C[C@@H](O)C1C(=O)N2C(C(=O)[O-])=C(C[N+]3(C)CC[C@H](NC(=N)N)C3)[C@H](C)C12 (stereo partly drawn) [Compound 67]	2 (≈ 5.47 µM)	8 (≈ 21.9 µM)	8 (≈ 21.9 µM)	4 (≈ 10.9 µM)	0.13 (≈ 0.356 µM)	0.25 (≈ 0.684 µM)	4 (≈ 10.9 µM)	0.13 (≈ 0.356 µM)	0.25 (≈ 0.684 µM)	0.13 (≈ 0.356 µM)	0.13 (≈ 0.356 µM)	0.13 (≈ 0.356 µM)	0.25 (≈ 0.684 µM)	0.25 (≈ 0.684 µM)	4 (≈ 10.9 µM)	0.016 (≈ 0.0438 µM)	16 (≈ 43.8 µM)	16 (≈ 43.8 µM)	16 (≈ 43.8 µM)	0.25 (≈ 0.684 µM)	MIC [12]: 1 µg/mL (≈ 2.74 µM); MIC [13]: 0.25 µg/mL (≈ 0.684 µM); MIC (strain #23 Serratia marcescens): 0.5 µg/mL (≈ 1.37 µM); MIC (strain #24 Serratia marcescens): 0.5 µg/mL (≈ 1.37 µM); MIC [14]: 0.25 µg/mL (≈ 0.684 µM); MIC (strain #26 Shigella sonnei): 0.25 µg/mL (≈ 0.684 µM); MIC (strain #27 Shigella flexneri): 0.13 µg/mL (≈ 0.356 µM); MIC [15]: 2 µg/mL (≈ 5.47 µM); MIC [16]: 1 µg/mL (≈ 2.74 µM); MIC [17]: 2 µg/mL (≈ 5.47 µM); MIC [18]: 2 µg/mL (≈ 5.47 µM); MIC [19]: 2 µg/mL (≈ 5.47 µM); MIC [20]: 2 µg/mL (≈ 5.47 µM); MIC [21]: 2 µg/mL (≈ 5.47 µM); MIC [22]: 4 µg/mL (≈ 10.9 µM); MIC [23]: 16 µg/mL (≈ 43.8 µM)
C[C@@H](O)C1C(=O)N2C(C(=O)O)=C(CN3CC(NC(=N)N)C3)[C@H](C)C12 (stereo partly drawn) [Compound 89]	0.13 (≈ 0.385 µM)	1 (≈ 2.96 µM)	1 (≈ 2.96 µM)	0.5 (≈ 1.48 µM)	0.13 (≈ 0.385 µM)	0.25 (≈ 0.741 µM)	1 (≈ 2.96 µM)	0.13 (≈ 0.385 µM)	0.25 (≈ 0.741 µM)	0.13 (≈ 0.385 µM)	0.13 (≈ 0.385 µM)	0.13 (≈ 0.385 µM)	0.25 (≈ 0.741 µM)	0.5 (≈ 1.48 µM)	0.25 (≈ 0.741 µM)	≤ 0.008	2 (≈ 5.93 µM)	2 (≈ 5.93 µM)	0.5 (≈ 1.48 µM)	0.25 (≈ 0.741 µM)	MIC [12]: 1 µg/mL (≈ 2.96 µM); MIC [13]: 0.25 µg/mL (≈ 0.741 µM); MIC (strain #23 Serratia marcescens): 0.5 µg/mL (≈ 1.48 µM); MIC (strain #24 Serratia marcescens): 0.5 µg/mL (≈ 1.48 µM); MIC [14]: 0.25 µg/mL (≈ 0.741 µM); MIC (strain #26 Shigella sonnei): 0.25 µg/mL (≈ 0.741 µM); MIC (strain #27 Shigella flexneri): 0.13 µg/mL (≈ 0.385 µM); MIC [15]: 0.13 µg/mL (≈ 0.385 µM); MIC [16]: 1 µg/mL (≈ 2.96 µM); MIC [17]: 1 µg/mL (≈ 2.96 µM); MIC [18]: 0.5 µg/mL (≈ 1.48 µM); MIC [19]: 1 µg/mL (≈ 2.96 µM); MIC [20]: 1 µg/mL (≈ 2.96 µM); MIC [21]: 1 µg/mL (≈ 2.96 µM); MIC [22]: 4 µg/mL (≈ 11.9 µM); MIC [23]: 8 µg/mL (≈ 23.7 µM)
C[C@@H](O)C1C(=O)N2C(C(=O)O)=C(CN3CC[C@H](C#N)C3)[C@H](C)C12 (stereo partly drawn) [Compound 7]	4 (≈ 12.5 µM)	2 (≈ 6.26 µM)	4 (≈ 12.5 µM)	4 (≈ 12.5 µM)	0.063 (≈ 0.197 µM)	0.13 (≈ 0.407 µM)	0.5 (≈ 1.57 µM)	0.13 (≈ 0.407 µM)	0.25 (≈ 0.783 µM)	0.13 (≈ 0.407 µM)	0.13 (≈ 0.407 µM)	0.13 (≈ 0.407 µM)	0.13 (≈ 0.407 µM)	0.25 (≈ 0.783 µM)	0.25 (≈ 0.783 µM)	≤ 0.008	1 (≈ 3.13 µM)	1 (≈ 3.13 µM)	0.5 (≈ 1.57 µM)	0.13 (≈ 0.407 µM)	MIC [12]: 0.5 µg/mL (≈ 1.57 µM); MIC [13]: 0.13 µg/mL (≈ 0.407 µM); MIC (strain #23 Serratia marcescens): 0.25 µg/mL (≈ 0.783 µM); MIC (strain #24 Serratia marcescens): 0.5 µg/mL (≈ 1.57 µM); MIC [14]: 0.25 µg/mL (≈ 0.783 µM); MIC (strain #26 Shigella sonnei): 0.13 µg/mL (≈ 0.407 µM); MIC (strain #27 Shigella flexneri): 0.13 µg/mL (≈ 0.407 µM); MIC [15]: 0.5 µg/mL (≈ 1.57 µM); MIC [16]: 16 µg/mL (≈ 50.1 µM); MIC [17]: 8 µg/mL (≈ 25.1 µM); MIC [18]: 2 µg/mL (≈ 6.26 µM); MIC [19]: 8 µg/mL (≈ 25.1 µM); MIC [20]: 8 µg/mL (≈ 25.1 µM); MIC [21]: 8 µg/mL (≈ 25.1 µM); MIC [22]: 32 µg/mL (≈ 100 µM); MIC [23]: > 32 µg/mL
C[C@@H](O)C1C(=O)N2C(C(=O)O)=C(CN3CC[C@@H](NC(=N)N)C3)[C@H](C)C12 (stereo partly drawn) [Compound 156]	0.5 (≈ 1.42 µM)	2 (≈ 5.69 µM)	4 (≈ 11.4 µM)	2 (≈ 5.69 µM)	0.5 (≈ 1.42 µM)	0.5 (≈ 1.42 µM)	2 (≈ 5.69 µM)	0.5 (≈ 1.42 µM)	1 (≈ 2.85 µM)	0.5 (≈ 1.42 µM)	0.5 (≈ 1.42 µM)	0.5 (≈ 1.42 µM)	0.5 (≈ 1.42 µM)	1 (≈ 2.85 µM)	1 (≈ 2.85 µM)	≤ 0.008	4 (≈ 11.4 µM)	4 (≈ 11.4 µM)	2 (≈ 5.69 µM)	0.5 (≈ 1.42 µM)	MIC [12]: 2 µg/mL (≈ 5.69 µM); MIC [13]: 1 µg/mL (≈ 2.85 µM); MIC (strain #23 Serratia marcescens): 2 µg/mL (≈ 5.69 µM); MIC (strain #24 Serratia marcescens): 2 µg/mL (≈ 5.69 µM); MIC [14]: 1 µg/mL (≈ 2.85 µM); MIC (strain #26 Shigella sonnei): 0.5 µg/mL (≈ 1.42 µM); MIC (strain #27 Shigella flexneri): 0.5 µg/mL (≈ 1.42 µM); MIC [15]: 0.5 µg/mL (≈ 1.42 µM)
C[C@@H](O)C1C(=O)N2C(C(=O)O)=C(CN3CC[C@H](NC=N)C3)[C@H](C)C12 (stereo partly drawn) [Compound 84]	0.25 (≈ 0.743 µM)	0.5 (≈ 1.49 µM)	1 (≈ 2.97 µM)	1 (≈ 2.97 µM)	0.25 (≈ 0.743 µM)	0.5 (≈ 1.49 µM)	1 (≈ 2.97 µM)	0.25 (≈ 0.743 µM)	0.5 (≈ 1.49 µM)	0.25 (≈ 0.743 µM)	0.25 (≈ 0.743 µM)	0.25 (≈ 0.743 µM)	0.5 (≈ 1.49 µM)	0.5 (≈ 1.49 µM)	0.5 (≈ 1.49 µM)	≤ 0.008	4 (≈ 11.9 µM)	2 (≈ 5.95 µM)	1 (≈ 2.97 µM)	0.5 (≈ 1.49 µM)	MIC [12]: 2 µg/mL (≈ 5.95 µM); MIC [13]: 0.5 µg/mL (≈ 1.49 µM); MIC (strain #23 Serratia marcescens): 1 µg/mL (≈ 2.97 µM); MIC (strain #24 Serratia marcescens): 1 µg/mL (≈ 2.97 µM); MIC [14]: 0.5 µg/mL (≈ 1.49 µM); MIC (strain #26 Shigella sonnei): 0.5 µg/mL (≈ 1.49 µM); MIC (strain #27 Shigella flexneri): 0.25 µg/mL (≈ 0.743 µM); MIC [15]: 0.25 µg/mL (≈ 0.743 µM); MIC [16]: 2 µg/mL (≈ 5.95 µM); MIC [17]: 2 µg/mL (≈ 5.95 µM); MIC [18]: 0.5 µg/mL (≈ 1.49 µM); MIC [19]: 2 µg/mL (≈ 5.95 µM); MIC [20]: 2 µg/mL (≈ 5.95 µM); MIC [21]: 2 µg/mL (≈ 5.95 µM); MIC [22]: 4 µg/mL (≈ 11.9 µM); MIC [23]: 16 µg/mL (≈ 47.6 µM)
